The assay deals with 5-hydroxytryptamine receptor 2A (Rattus norvegicus, UniProt P14842).
5-hydroxytryptamine receptor 2A, sequence (P14842 whole entry): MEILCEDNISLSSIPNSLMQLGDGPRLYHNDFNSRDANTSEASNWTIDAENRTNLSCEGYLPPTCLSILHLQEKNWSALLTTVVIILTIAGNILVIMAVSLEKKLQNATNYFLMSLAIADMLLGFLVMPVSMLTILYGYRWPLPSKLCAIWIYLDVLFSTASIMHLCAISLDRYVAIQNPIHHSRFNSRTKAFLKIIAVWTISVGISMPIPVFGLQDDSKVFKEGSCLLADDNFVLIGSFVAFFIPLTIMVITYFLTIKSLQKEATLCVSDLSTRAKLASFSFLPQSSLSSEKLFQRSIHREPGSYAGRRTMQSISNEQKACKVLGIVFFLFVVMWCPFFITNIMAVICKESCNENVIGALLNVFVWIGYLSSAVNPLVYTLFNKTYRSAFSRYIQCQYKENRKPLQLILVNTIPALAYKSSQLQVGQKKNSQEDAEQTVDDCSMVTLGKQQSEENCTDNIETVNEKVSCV

Take `CN1CCc2cc(Cl)c(O)cc2[C@H]2c3ccccc3CC[C@@H]21`: the inhibition constant Ki was found to be 321 nM.

With `CN1CCc2cc(Cl)c(O)cc2[C@@H](c2ccccc2)C1` [SCH 23390,R(+)], the inhibition constant (Ki) is 13.1 nM.

(Values after BindingDB's records for PubMed 2905002 (Schering-Plough, 1988).)
